Source: patent publication US11242365B2, “FOXM1-derived peptide, and vaccine including same” (OncoTherapy Science, Inc., priority 2015, dated 2022)
Entries after “also recorded” stand apart in the source; their conditions may differ.

Key:
[1] = test system: target cells (C1R-A01) pulsed with peptide; experiment: IFN-gamma ELISA of CTL clones established by limiting dilution (HLA-A*01:01); format: cell-based, human; conditions: CTL clone against peptide-pulsed C1R-A01; listed as FOXM1-A01-10-566
Description: After induction of CTLs in vitro, the CTLs were seeded onto 96-well round-bottomed microplates (Nalge Nunc International) at 1 cell/well or 10 cells/well. The CTLs were cultured with two types of Mitomycin C-treated human B lymphoblastoid cell lines (1×10^4 cells/well each) in a total of 150 micro-l/well 5% ABS/AIM-V medium with an anti-CD3 antibody (final concentration: 30 ng/ml) and IL-2 (final concentration: 125 IU/ml). Ten days later, 50 micro-l 5% ABS/AIM-V medium containing 500 IU/ml IL-2 was added to the culture.
(§1) Peptide-pulsed C1R-A01 (1×10^4 cells/well) was prepared as the target cell. The IFN-gamma ELISPOT assay and IFN-gamma ELISA were performed according to the assay kit manufacturer's manual.

[2] = test system: target cells (C1R-A01) pulsed with peptide; experiment: IFN-gamma ELISA of CTL lines (HLA-A*01:01); format: cell-based, human; conditions: CTL line against peptide-pulsed C1R-A01; listed as FOXM1-A01-10-566
Description: CTLs were propagated using methods similar to those reported by Riddell et al. (Walter E A et al., N Engl J Med 1995, 333(16): 1038-44; Riddell S R et al., Nat Med 1996, 2(2): 216-23). The CTLs were cultured in 25 ml 5% ABS/AIM-V medium together with two types of Mitomycin C-treated human B lymphoblastoid cell lines (5×10^6 cells/25 ml medium each) and an anti-CD3 antibody (final concentration: 40 ng/ml). On the day after beginning of the culturing, IL-2 (final concentration: 120 IU/ml) was added to the culture. On days 5, 8 and 11, the medium was changed to a 5% ABS/AIM-V medium containing IL-2 (final concentration: 30 IU/ml) (Tanaka H et al., Br J Cancer 2001, 84(1): 94-9; Umano Y et al., Br J Cancer 2001, 84(8): 1052-7; Uchida N et al., Clin Cancer Res 2004, 10(24): 8577-86; Suda T et al., Cancer Sci 2006, 97(5): 411-9; Watanabe T et al., Cancer Sci 2005, 96(8): 498-506).
as §1

[3] = test system: COS7 cells expressing FOXM1 and HLA-A*01:01; experiment: IFN-gamma production of CTL clone against target cells expressing FOXM1 and HLA-A*01:01; format: cell-based, African green monkey
From the text: A cDNA encoding the FOXM1 or HLA-A*01:01 gene was amplified by PCR. The PCR-amplified product was each incorporated into an expression vector. Either or both of the FOXM1 gene-expressing vector and the HLA-A*01:01 gene-expressing vector were introduced into COS7 cells, which is a cell line negative for HLA, using Lipofectamine 2000 (Invitrogen). On the day after gene introduction, COS7 cells were detached and harvested using versene (Invitrogen), and used as the target cell for confirmation of IFN-gamma production (5×10^4 cells/well).
IFN-gamma production of the FOXM1-A01-10-566 (SEQ ID NO: 56)-specific CTL clone against target cells expressing FOXM1 and HLA-A*01:01 was investigated. COS7 cells expressing both FOXM1 and HLA-A*01:01 were prepared as the target cell. COS7 cells expressing either one of FOXM1 and HLA-A*01:01 were prepared as the negative control cell. […] This clearly proves that FOXM1-A01-10-566 (SEQ ID NO: 56) is a peptide generated by antigen processing, and is presented on the cell surface with the HLA-A*01:01 molecule and recognized by CTLs.

## SSDPASOLSY (SSDPASQLSY; a peptide derived from FOXM1) [SEQ ID NO: 56]
[1]
  peptide-specific IFN-gamma production of CTL clone (ELISA): showed a peptide-specific IFN-gamma production
[2]
  IFN-gamma production by the CTL line (ELISA): observed; also recorded: CTL line that produce IFN-gamma in a peptide-specific manner was established
[3]; COS7 cells expressing both FOXM1 and HLA-A*01:01
  IFN-gamma production of peptide-specific CTL clone: showed IFN-gamma production
[3]; negative control: COS7 cells expressing either one of FOXM1 and HLA-A*01:01, listed as FOXM1-A01-10-566
  IFN-gamma production of peptide-specific CTL clone: a significant IFN-gamma production was not observed; also recorded: a significant IFN-gamma production was not shown
